Laboratory results published in article PMC6211316, “Synthesis and biological evaluation of 3-arylcoumarin derivatives as potential anti-diabetic agents” (Journal of Enzyme Inhibition and Medicinal Chemistry, 2018).

System: STZ-induced diabetic mice
Experiment: Oral glucose tolerance test in STZ-induced diabetic mice
Assay type: in vivo
Conditions: 30 mg/kg of bw, glucose 2 g/kg of bw, vs vehicle-treated group (p < 0.05)
Experimental: The target compounds 11, 17, and 35 (30 mg/kg of bw) and control drugs (glibenclamide 10 mg/kg of bw) were dissolved in the vehicle (Tween-80, NaCl 0.9%). Glucose (2 g/kg of bw) was used for the glucose tolerance tests. The control mice group received only the vehicle. All cases were treated orally. Blood samples were collected from caudal vein by means of a small incision in the end of the tail. Blood glucose levels were estimated by a commercial glucometer (Bayer Contour TS). For the anti-hyperglycemic tests, blood samples were obtained 0.5, 1, 1.5, 2, and 3 h after the glucose load. Percentage variation of glycemia for each group was calculated with respect to initial (0 h) level according to: % Variation of glycemia=[(Gi−Gt)/Gi]×100% where Gi is initial glycemia values and Gt is the glycemia value after samples administration. For the anti-hyperglycemic tests, data were represented as % variation of glycemia versus time. Studies were performed in normoglycemic and STZ-induced diabetic mice.

| Structure (SMILES) | postprandial glycemia peak in oral glucose tolerance test |
| --- | --- |
| O=c1oc2ccc(O)cc2cc1-c1ccc(O)cc1 [Compound 17, 6-Hydroxy-3-(4-hydroxyphenyl)-coumarin] | caused significant decrease in the postprandial glycemia peak |
| COc1ccc(-c2cc3c(O)cc(O)cc3oc2=O)cc1 [Compound 35, 5,7-Dihydroxy-3-(4-methoxyphenyl)-coumarin] | caused significant decrease in the postprandial glycemia peak |
